In PubChem BioAssay (NCI):
Values joined by “and” are separate entries in the source; they are usually repeats but may differ in a detail not shown here. Identical values can stand only once.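 A five-concentration, 48-hour dose response in 96-well plates underlies each endpoint, interpolated linearly between surrounding concentrations. GI50: concentration for 50% inhibition of growth. Definition used: TGI = concentration required for complete inhibition of growth.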

Legend:
Assay in all cases: growth of human tumour cells (NCI), 48 h
LOX IMVI melanoma = test system: LOX IMVI melanoma
SR leukemia = test system: SR leukemia
ACHN renal = test system: ACHN renal
SF-539 CNS = test system: SF-539 CNS
HCT-116 colon = test system: HCT-116 colon
CAKI-1 renal = test system: CAKI-1 renal
SN12C renal = test system: SN12C renal
RXF 393 renal = test system: RXF 393 renal
NCI-H226 lung = test system: NCI-H226 lung
MOLT-4 leukemia = test system: MOLT-4 leukemia

Row | SMILES | GI50 (LOX IMVI melanoma) [µM] | TGI (LOX IMVI melanoma) [µM] | GI50 (SR leukemia) [µM] | GI50 (ACHN renal) [µM] | TGI (ACHN renal) [µM] | GI50 (SF-539 CNS) [µM] | TGI (SF-539 CNS) [µM] | GI50 (HCT-116 colon) | TGI (HCT-116 colon) [µM] | GI50 (CAKI-1 renal) [µM] | TGI (CAKI-1 renal) [µM] | GI50 (SN12C renal) [µM] | TGI (SN12C renal) [µM] | GI50 (RXF 393 renal) [µM] | TGI (RXF 393 renal) [µM] | GI50 (NCI-H226 lung) [µM] | TGI (NCI-H226 lung) [µM] | GI50 (MOLT-4 leukemia) [µM] | TGI (MOLT-4 leukemia) | TGI (SR leukemia) [µM]
1 | CC[C@@]1(O)C(=O)OCc2c1cc1n(c2=O)Cc2cc3c(N)cccc3nc2-1 | 0.00462 | 0.255 | 0.00165 | 0.00448 | 0.0501 | 0.00511 | 0.0184 | 0.00979 µM and 0.0559 µM | 0.737 | 0.00849 | 0.858 | 0.00812 | > 23.3 | 0.0893 | 0.34 | 0.0179 | 0.105 | 0.00295 | 0.0605 µM and 0.0649 µM | 
2 | O=C(Nc1ccccc1O)c1ccc(CNC(=O)c2ccsc2Nc2ccnc(C(F)(F)F)c2)cc1 | 1.63 | 3.99 | 2.81 | 2.6 | 10.3 | 1.95 | 18.1 | 1.34 µM | 3.36 | 2.62 | 9.96 | 4.13 | 79.3 | 1.93 | 4.82 | 2.48 | 30.9 | 0.956 | 9.48 µM | 29.1
3 | COc1ccc(CC2=NCCc3cc(OC)c(OC)cc32)cc1Br |  | 30.3 |  |  | > 100 |  | > 100 |  |  |  | 59.3 |  | > 100 |  | 90.6 |  | 50.9 |  | 58.6 µM | 91.1
4 | NC(=O)c1cc(I)ccc1NC(=O)COc1ccccc1 | 1.01 | > 100 | 0.285 | 1.5 | > 100 | 0.29 | 1.58 | 0.499 µM | 16.1 | 0.547 | > 100 | 2.3 | > 100 | 0.453 | 4.53 | 3.48 | > 100 | 1.05 | > 78.4 µM | > 74.1
5 | O=c1oc2ccc(F)cc2c(=O)n1-c1ccc(Br)cc1F | 0.456 | 4.24 | 0.578 | 0.59 | 13.6 | 0.45 | 6.35 | 0.436 µM | 2.69 | 0.393 | 3.69 | 0.376 | 7.6 | 0.923 | 4.66 | 1.08 | 4.87 |  |  | > 100
6 | C/C(=N/NC(=O)CC(=O)N(C(=O)c1ccccc1Cl)c1ccc(C)cc1)c1cc2ccccc2oc1=O |  | > 100 |  |  | > 100 |  | > 100 |  | > 100 |  | > 100 |  | > 100 |  | > 100 |  | > 100 |  |  | > 100
7 | Nc1ncnc2c1c(-c1ccc(Oc3ccccc3)cc1)nn2C[C@@H]1SSC[C@@H]1O | 0.169 | 1.11 | 0.0385 | 0.398 | 7.01 | 1.63 | 26.3 | 0.101 µM | 1.64 | 1.36 | 5.01 | 0.762 | 11 | 1.46 | 5.6 | 1.59 | 3.92 | 0.0304 | 0.119 µM | 0.27
8 | CN(C)C/C=C/C(=O)Nc1ccc(C(=O)N2CCC[C@@H](Nc3ncc(Cl)c(-c4c[nH]c5ccccc45)n3)C2)cc1 | 0.0558 | 1.28 | 0.0337 | 3.41 | 12.7 | 0.176 | 0.65 | 0.154 µM | 10.6 | 1.65 | 12.1 | 0.21 | 9.29 | 0.115 | 0.561 | 0.365 | 3.2 | 0.182 | 3.55 µM | 1.03
9 | O=C(O)C1C(C(=O)O)C2(Cl)C(Cl)=C(Cl)C1(Cl)C2(Cl)Cl.[Cd] (centres undefined) | 16.8 | 33.5 | 2.8 | 21.3 | 43.9 | 3.66 | 11.7 | 17.5 µM | 32.5 | 17.8 | 34.4 | 18.4 | 36.1 | 13.7 | 30.5 | 34.9 | > 66.7 | 22 | 60.9 µM | 32.7
10 | Fc1cc(-c2nnc3n2N=C(c2ccc(Cl)cc2Cl)CS3)c(Cl)cc1Cl | 34.3 | > 100 | > 100 | 66.6 | > 100 | 39.2 | > 100 | 25.4 µM | 68.7 | 35.9 | > 100 | 56.4 | > 100 | 51 | > 100 | 36.5 | > 100 | 75.1 | > 100 µM | > 100
11 | C=CC(=O)Nc1cccc(Nc2nc(Nc3ccc(OCCOC(F)F)cc3)ncc2F)c1 | 1.37 | 4.52 | 2.88 | 1.35 | 10.4 |  |  | 2.69 µM | 20 | 1.28 | 10.1 | 2.54 | 16.2 | 1.09 | 4.42 | 0.52 | 11.2 | 3.73 | > 100 µM | > 100
12 | C=CC1=CC(C)C[C@]1(O)C(=O)OC (some centres undefined) | > 100 |  |  | > 100 |  |  | > 100 | > 100 µM |  | > 100 |  | > 100 |  | > 100 |  | > 100 |  | > 100 |  | > 100
13 | C1=C2CNCC3=Cc4ccc5ccccc5c4OC23Oc2c1ccc1ccccc21 | 2.43 | 7.48 | 2.2 |  |  | 3.36 | 14.9 | 3.01 µM | 13.1 | 3.29 | 20.7 | 4.22 | 20.1 | 1.79 | 6.16 | 10.6 | 27.6 | 2.86 | 10.6 µM | 5.4
14 | C[C@@H]1C/C=C\C(=O)O[C@H](/C=C/C#C/C=C/C(C)(C)[C@@H](O)c2cccc(O)c2Br)[C@@H](C)/C=C/[C@H](C)C[C@H](OC(N)=O)C1 | 0.0167 | 0.0447 | 0.0273 | 0.0405 | 14.5 |  |  | 0.0362 µM | 12.5 | 0.0462 | 13.8 | 0.0542 | 14 | 0.636 | 7.81 | 0.445 | 19 | 0.034 | 40.8 µM | > 100
